In patent publication US20210087217A1, “NUCLEOTIDE HEMI-SULFATE SALT FOR THE TREATMENT OF HEPATITIS C VIRUS” (Atea Pharmaceuticals, Inc., priority 2017, published 2021):
“Also recorded” adds a separate entry of the source. Structures can show the parent of a compound that is named as a salt.

Assays:
[1] = Plasma profiles of Compound 2 metabolites in monkeys; format: in vivo, cynomolgus monkeys; settings: monkeys, single oral 30, 100 or 300 mg/kg Compound 2
[2] = Plasma levels of metabolites following single oral doses of Compound 2, monkeys; format: in vivo, monkey; settings: for AUC(0-t) / Cmax / Tmax: monkey, plasma, po
[3] = Single ascending dose study of Compound 2 in GT1-HCV infected patients (Part B): safety, tolerability, pharmacokinetic; format: in vivo, human
Description: Subjects in Part B received a single dose of Compound 2 in the fasting state. Patients were confined to the clinic from Day −1 to Day 6.
Part B was initiated after the safety (through Day 5) and plasma pharmacokinetic (through 24 h) data review from Cohort 3a in Part A. Available safety data (through Day 5) and pharmacokinetic data (through 24 h) was reviewed for the first cohort in Part B (Cohort 1b) before enrolling subsequent Part B cohorts. Subsequent Part B cohorts were only dosed following review of available safety and pharmacokinetic data from the respective doses in Part A as well as available safety (through Day 5) from the prior Part B cohorts.
Patients infected with HCV were treatment-naïve, non-cirrhotic GT1-infected subjects with a viral load of ≥5 log10 IU/mL.
(§1) Pharmacokinetic of Compound 1 and nucleoside metabolite 1-7 were measured following the single dose of Compound 2. […] Values are reported as mean±SD, except or Tmax where median (range) is reported.
Plasma exposure of Compound 1 was dose-related while exposure of metabolite 1-7 was dose-proportional.

[4] = Head-to-head comparison of plasma levels in dogs dosed with Compound 1 and Compound 2; format: in vivo, dog; settings: dosed Compound 1 25 mg/kg or Compound 2 30 mg/kg, normalized to a dose of 25 mg/kg
Description: A head-to-head comparison of dogs dosed with Compound 1 and Compound 2 was conducted.

[5] = Single ascending dose study of Compound 2 in healthy volunteers (Part A): safety, tolerability, pharmacokinetic; format: in vivo, human; settings: healthy subjects
Description: Compound 2 was tested in a single ascending dose (SAD) study to measure its safety, tolerability, and pharmacokinetic in healthy subjects (Part A). Part A was a randomized, double-blind, placebo-controlled SAD study. Healthy subjects in Part A received a single dose of Compound 2 or placebo in the fasting state. Subjects were confined to the clinic from Day −1 to Day 6.
Dosing in each cohort was staggered such that 2 subjects (1 active:1 placebo) were evaluated for 48 hours after dosing before the remainder of the cohort was dosed. Each cohort received Compound 2 in ascending order. Dosing of sequential cohorts occurred based on review of available safety data (through Day 5) and plasma pharmacokinetic data (through 24 h) of the prior cohort.
As pharmacokinetic and safety data emerged from prior cohorts, doses evaluated in Cohorts 3a-4a were adjusted by increments no more than 100 mg.
Healthy volunteers in the Part A portion of the study were male and female subjects between the ages of 18 and 65. Active and placebo recipients were pooled within each Part A cohort to preserve the study blind.
as §1

[6] = Plasma profiles of Compound 2 metabolites in rats; settings: rats, single oral dose of Compound 2
Description: The results for a single 500 mg/kg dose in rats is shown in FIG. 17 and the results for a single 30, 100, or 300 mg/kg dose in monkeys is shown in FIG. 18.

[7] = Heart and liver tissue levels of active triphosphate 4 hours after oral Compound 2, monkeys; format: in vivo, monkey; settings: 4 hours after oral dose of Compound 2
Description: (§2) High levels of the active TP were measured in the liver of all species tested.

[8] = Heart and liver tissue levels of active triphosphate 4 hours after oral Compound 2, rats; format: in vivo, rat; settings: 4 hours after oral dose of Compound 2
Description: as §2

[9] = Plasma levels of metabolites following single oral doses of Compound 2, dogs; format: in vivo, dog; settings: for AUC(0-t) / Cmax / Tmax: dog, plasma, po
[10] = Storage of Compound 1 forms and amorphous salts at 25° C./60% RH for 14 days (HPLC, XRPD, observation)
Description: This initial characterization was followed by storage at 25° C./60% relative humidity (RH) for 14 days with analysis by […] and XRPD after 7 and 14 days. FIG. 4A is the XRPD after 14 days at 25° C./60% (RH).
The samples were then frozen with the solvent removed by lyophilization.
The samples were then subjected to storage at 25° C./60% relative humidity (RH) for 14 days with analysis by HPLC and XRPD after 7 (FIG. 4B) and 14 days (FIG. 5A).

[11] = Accelerated stability (40 ± 2° C./75 ± 5% RH) of Compound 2; format: physicochemical
Description: Three conditions were tested: accelerated stability (40 2° C./75±5% RH) over a 6-month time period, ambient stability (25±2° C./60±5% RH) over a 9-month period, and stability under refrigerator conditions (5 3° C.) over a 9-month time period. The results for accelerated stability, ambient stability, and refrigerator conditions are shown in Table 23, Table 24, and Table 25, respectively.
After six months, the total related substance 1 impurities was only 0.08% and there was no detection of related substance 2 and isomers.

[12] = Plasma levels of metabolites following single oral dose of Compound 2, rats; format: in vivo, rat; settings: single oral dose of Compound 2
[13] = Part B, GT1-HCV infected patients

With `CNc1nc(N)nc2c1ncn2[C@@H]1O[C@H](CO[P@@](=O)(N[C@@H](C)C(=O)OC(C)C)Oc2ccccc2)[C@@H](O)[C@@]1(C)F` [Compound 2, hemi-sulfate salt of isopropyl((S)-(((2R,3R,4R,5R)-5-(2-amino-6-(methylamino)-9H-purin-9-yl)-4-fluoro-3-hydroxy-4-methyltetrahydrofuran-2-yl)methoxy)(phenoxy)phosphoryl)-L-alaninate] the “Dose proportionality of metabolite 1-7 exposures” value [1] was “somewhat less than dose-proportional”, the “Dose proportionality of plasma exposures (AUC) of Compound 1” value [1] was “roughly dose-proportional” and the AUC(0-t) ([2]; 30 mg/kg) was 176 ng·h/mL. The Cmax ([2]; 30 mg/kg) was 63.5 ng/mL, the Tmax ([2]; 30 mg/kg) was 0.5 to 2 h and the AUC(0-t) ([2]; 100 mg/kg) was 1100 ng·h/mL. The Cmax ([2]; 100 mg/kg) was 783 ng/mL, the Tmax ([2]; 100 mg/kg) was 1 to 2 h and the AUC(0-t) ([2]; 300 mg/kg) was 1600 ng·h/mL. For the same compound, the Cmax ([2]; 300 mg/kg) was 501 ng/mL, the Tmax ([2]; 300 mg/kg) was 204 h and the “Vomiting (animals affected)” value ([2]; monkeys, high dose group) was 1/5. The “Dose proportionality of Compound 1 exposures” value ([2]; monkeys, single oral doses of Compound 2) was “roughly dose-proportional”, the “Intensity of adverse effects” value [3, 13] was “mild to moderate” and the Serious adverse events [3, 13] was “No serious adverse events”. For the same compound, the “Time within which Compound 1 was absorbed and metabolized” value ([3]; all cohorts from Part B, single dose of Compound 2) was at most 8 h, the “Tolerability” value ([3]; hepatitis C infected patients, single oral dose) was “well tolerated” and the “Plasma exposure of Compound 1 versus dose” value ([3]; single dose of Compound 2) was “dose-related”. The “Plasma exposure of metabolite 1-7 versus dose” value ([3]; single dose of Compound 2) was “mostly dose-proportional”, the “Mean Dose-normalized AUC(0-4hr) for Compound 1” value [4] was 1.0 µM·h and the “Intensity of adverse effects” value ([5]; Part A) was “mild to moderate”. For the same compound, the Serious adverse events ([5]; Part A) was “No serious adverse events”, the “Tolerability” value ([5]; single oral dose) was “well tolerated” and the “Plasma levels of parent nucleotide prodrug” value [6] was “very low plasma levels”. The “Active TP (metabolite 1-6) level in heart” value [7] was “unquantifiable levels”, the “Active TP (metabolite 1-6) level in liver” value [7] was “High levels” and the “Active TP (metabolite 1-6) level in heart” value [8] was “unquantifiable levels”. The “Active TP (metabolite 1-6) level in liver” value [8] was “High levels”, the AUC(0-t) ([9]; 30 mg/kg) was 1300 ng·h/mL and the AUC(0-t) ([9]; 100 mg/kg) was 10200 ng·h/mL. It also gave a Cmax ([9]; 100 mg/kg) of 8120 ng/mL, a Tmax ([9]; 100 mg/kg) of 0.5 to 1 h and an AUC(0-t) ([9]; 300 mg/kg) of 44300 ng·h/mL. The Cmax ([9]; 300 mg/kg) was 21300 ng/mL, the Tmax ([9]; 300 mg/kg) was 204 h and the “Vomiting (animals affected)” value ([9]; dogs, high dose group) was 5/5. For the same compound, the “Dose proportionality of Compound 1 exposures” value ([9]; dogs, single oral doses of Compound 2) was “supra-proportional”, the “Hygroscopicity” value [10] was “not hydroscopic; also recorded: non-hygroscopic” and the “Physical/chemical stability and appearance on storage” value ([10]; 25° C./60% RH, 14 days) was “stable white solid”. The Appearance ([11]; 40° C./75% RH, 0 month) was “White”, the Assay ([11]; 40° C./75% RH, 0 month) was 98.8% and the IR ([11]; 40° C./75% RH, 0 month) was “correspond”. For the same compound, the “Related Substance 1: Any other single impurity” value ([11]; 40° C./75% RH, 0 month) was 0.01%, the “Related Substance 1: Total Impurities” value ([11]; 40° C./75% RH, 0 month) was 0.01% and the Water ([11]; 40° C./75% RH, 0 month) was 0.45%. For the same compound, the Appearance ([11]; 40° C./75% RH, 1st month) was “White”, the Assay ([11]; 40° C./75% RH, 1st month) was 101.5% and the “Related Substance 1: Any other single impurity” value ([11]; 40° C./75% RH, 1st month) was 0.02%. For the same compound, the “Related Substance 1: Total Impurities” value ([11]; 40° C./75% RH, 1st month) was 0.02%, the Water ([11]; 40° C./75% RH, 1st month) was 0.21% and the Appearance ([11]; 40° C./75% RH, 3rd month) was “White”. For the same compound, the Assay ([11]; 40° C./75% RH, 3rd month) was 99.6%, the IR ([11]; 40° C./75% RH, 3rd month) was “correspond” and the “Related Substance 1: Any other single impurity” value ([11]; 40° C./75% RH, 3rd month) was 0.01%. For the same compound, the “Related Substance 1: Total Impurities” value ([11]; 40° C./75% RH, 3rd month) was 0.02%, the Water ([11]; 40° C./75% RH, 3rd month) was 0.36% and the Appearance ([11]; 40° C./75% RH, 6th month) was “White”. The Assay ([11]; 40° C./75% RH, 6th month) was 99.5%, the IR ([11]; 40° C./75% RH, 6th month) was “correspond” and the “Related Substance 1: Any other single impurity” value ([11]; 40° C./75% RH, 6th month) was 0.05%. For the same compound, the “Related Substance 1: Impurity F” value ([11]; 40° C./75% RH, 6th month) was 0.01%, the “Related Substance 1: Total Impurities” value ([11]; 40° C./75% RH, 6th month) was 0.08% and the Water ([11]; 40° C./75% RH, 6th month) was 0.41%. For the same compound, the “Stability” value ([11]; accelerated stability conditions (40° C./75% RH), 6 months) was “remains a white solid”, the “Compound 1 exposure” value [12] was “low levels” and the “Metabolite 1-7 levels” value [12] was “high levels”.
